According to patent publication US7119090B2, “Pyrrole substituted 2-indolinone protein kinase inhibitors” (Sugen, Inc., priority 1998, dated 2006):
Each block holds one compound with its values, some of them ahead of it.

Assays:
[1] = Potency in vitro (data not shown)
C6 glioma tumors = C6 glioma tumors subcutaneously implanted in mice, oral administration; type: in vivo; conditions: 200 mg/kg/day, day 18 post-implantation, subcutaneous C6 tumors in BALB/c nu/nu mice
Protocol: The following protocol can be used to perform xenograft experiments:
Female athymic mice (BALB/c, nu/nu) are obtained from Simonsen Laboratories (Gilroy, Calif.). All animals are maintained under clean-room conditions in Micro-isolator cages with Alpha-dri bedding. They receive sterile rodent chow and water ad libitum.
Cell lines are grown in appropriate medium (for example, MEM, DMEM, Ham's F10, or Ham's F12 plus 5%-10% fetal bovine serum (FBS) and 2 mM glutamine (GLN)). All cell culture media, glutamine, and fetal bovine serum are purchased from Gibco Life Technologies (Grand Island, N.Y.) unless otherwise specified. All cells are grown in a humid atmosphere of 90-95% air and 5-10% CO2 at 37° C. All cell lines are routinely subcultured twice a week and are negative for mycoplasma as determined by the Mycotect method (Gibco).
Cells are harvested at or near confluency with 0.05% Trypsin-EDTA and pelleted at 450 x g for 10 min. […] Tumor growth is measured over 3 to 6 weeks using venier calipers. Tumor volumes are calculated as a product of length×width×height unless otherwise indicated. P values are calculated using the Students t-test. […]
The compounds also maintain excellent activity when tested in vivo. […] Tumor growth was measured using vernier calipers and tumor volumes were calculated as the product of length×width×height. […]

PDGFR = target: T1, PDGFR (Homo sapiens, UniProt P09619); assay: Inhibition constant (Ki) against PDGFR; type: biochemical; conditions: data not shown
T1 construct: expressed in transfected cells; host or cells: NIH 3T3 cells expressing PDGFR-β (lysate, Screening Lab, SUGEN)

HUV-EC-C cells (VEGF) = assay: HUV-EC-C assay, VEGF-stimulated 3H-thymidine incorporation (HUVEC-VEGF); type: cell-based; conditions: Homo sapiens; Table 1
Protocol: (§1) The following protocol may also be used to measure a compound's activity against PDGF-R, FGF-R, VEGF, aFGF or Flk-1/KDR, all of which are naturally expressed by HUV-EC cells.
(§2) 1. […] After cells have detached from the flask, add an equal volume of assay medium and transfer to a 50 ml sterile centrifuge tube (Fisher Scientific, catalogue no. 05-539-6).
(§3) 2. Wash the cells with about 35 ml assay medium in the 50 ml sterile centrifuge tube by adding the assay medium, centrifuge for 10 minutes at approximately 200x g, aspirate the supernatant, and resuspend with 35 ml D-PBS. Repeat the wash two more times with D-PBS, resuspend the cells in about 1 ml assay medium/is cm^2 of tissue culture flask. Assay medium consists of F12K medium (Gibco BRL, catalogue no. 21127-014) and 0.5% heat-inactivated fetal bovine serum. Count the cells with a Coulter Counter® (Coulter Electronics, Inc.) and add assay medium to the cells to obtain a concentration of 0.8-1.0×10^5 cells/ml.
(§4) 3. Add cells to 96-well flat-bottom plates at 100 μl/well or 0.8-1.0×10^4 cells/well, incubate −24h at 37° C., 5% CO2.
(§5) 1. Make up two-fold test compound titrations in separate 96-well plates, generally 50 μM on down to 0 μM. Use the same assay medium as mentioned in day 0, step 2 above. Titrations are made by adding […] of test compound at 200 μM (4X the final well concentration) to the top well of a particular plate column. Since the stock test compound is usually 20 mM in DMSO, the 200 μM drug concentration contains 2% DMSO.
(§6) A diluent made up to 2% DMSO in assay medium (F12K+0.5% fetal bovine serum) is used as diluent for the test compound titrations in order to dilute the test compound but keep the DMSO concentration constant. Add this diluent to the remaining wells in the column at 60 μl/well. Take 60 μl from the 120 μl of 200 μM test compound dilution in the top well of the column and mix with the 60 μl in the second well of the column. Take 60 μl from this well and mix with the 60 μl in the third well of the column, and so on until two-fold titrations are completed. When the next-to-the-last well is mixed, take 60 μl of the 120 μl in this well and discard it. Leave the last well with 60 μl of DMSO/media diluent as a non-test compound-containing control. Make 9 columns of titrated test compound, enough for triplicate wells each for: (1) VEGF (obtained from Pepro Tech Inc., catalogue no. 100-200, (2) endothelial cell growth factor (ECGF) (also known as acidic fibroblast growth factor, or aFGF) (obtained from Boehringer Mannheim Biochemica, catalogue no. 1439 600), or, (3) human PDGF B/B (1276-956, Boehringer Mannheim, Germany) and assay media control. ECGF comes as a preparation with sodium heparin.
(§7) 2. Transfer 50 μl/well of the test compound dilutions to the 96-well assay plates containing the 0.8-1.0×10^4 cells/100 μl/well of the HUV-EC-C cells from day 0 and incubate […] at 37° C., 5% CO2.
(§8) 3. In triplicate, add 50 μl well of […] VEGF, 20 ng/ml ECGF, or media control to each test compound condition. As with the test compounds, the growth factor concentrations are 4X the desired final concentration. Use the assay media from day 0 step 2 to make the concentrations of growth factors. Incubate approximately 24 hours at 37° C., 5% CO2. Each well will have 50 μl test compound dilution, 50 μl growth factor or media, and 100 μl cells, which calculates to 200 μl/well total. Thus the 4X concentrations of test compound and growth factors become 1X once everything has been added to the wells.
(§9) 1. Add ^3H-thymidine (Amersham, catalogue no. TRK-686) at 1 μCi/well (10 μl/well of 100 μCi/ml solution made up in RPMI media +10% heat-inactivated fetal bovine serum) and incubate ˜24 h at 37° C., 5% CO2. RPMI is obtained from Gibco BRL, catalogue no. 11875-051.
(§10) 1. Freeze plates overnight at −20° C. […]

HUV-EC-C cells (aFGF) = assay: HUV-EC-C assay, aFGF (ECGF)-stimulated 3H-thymidine incorporation (HUVEC-aFGF); type: cell-based; conditions: Homo sapiens; Table 1
Protocol: as §1, §2, §3, §4, §5, §6, §7, §8, §9, §10

T1 sequence (P09619 33-1106): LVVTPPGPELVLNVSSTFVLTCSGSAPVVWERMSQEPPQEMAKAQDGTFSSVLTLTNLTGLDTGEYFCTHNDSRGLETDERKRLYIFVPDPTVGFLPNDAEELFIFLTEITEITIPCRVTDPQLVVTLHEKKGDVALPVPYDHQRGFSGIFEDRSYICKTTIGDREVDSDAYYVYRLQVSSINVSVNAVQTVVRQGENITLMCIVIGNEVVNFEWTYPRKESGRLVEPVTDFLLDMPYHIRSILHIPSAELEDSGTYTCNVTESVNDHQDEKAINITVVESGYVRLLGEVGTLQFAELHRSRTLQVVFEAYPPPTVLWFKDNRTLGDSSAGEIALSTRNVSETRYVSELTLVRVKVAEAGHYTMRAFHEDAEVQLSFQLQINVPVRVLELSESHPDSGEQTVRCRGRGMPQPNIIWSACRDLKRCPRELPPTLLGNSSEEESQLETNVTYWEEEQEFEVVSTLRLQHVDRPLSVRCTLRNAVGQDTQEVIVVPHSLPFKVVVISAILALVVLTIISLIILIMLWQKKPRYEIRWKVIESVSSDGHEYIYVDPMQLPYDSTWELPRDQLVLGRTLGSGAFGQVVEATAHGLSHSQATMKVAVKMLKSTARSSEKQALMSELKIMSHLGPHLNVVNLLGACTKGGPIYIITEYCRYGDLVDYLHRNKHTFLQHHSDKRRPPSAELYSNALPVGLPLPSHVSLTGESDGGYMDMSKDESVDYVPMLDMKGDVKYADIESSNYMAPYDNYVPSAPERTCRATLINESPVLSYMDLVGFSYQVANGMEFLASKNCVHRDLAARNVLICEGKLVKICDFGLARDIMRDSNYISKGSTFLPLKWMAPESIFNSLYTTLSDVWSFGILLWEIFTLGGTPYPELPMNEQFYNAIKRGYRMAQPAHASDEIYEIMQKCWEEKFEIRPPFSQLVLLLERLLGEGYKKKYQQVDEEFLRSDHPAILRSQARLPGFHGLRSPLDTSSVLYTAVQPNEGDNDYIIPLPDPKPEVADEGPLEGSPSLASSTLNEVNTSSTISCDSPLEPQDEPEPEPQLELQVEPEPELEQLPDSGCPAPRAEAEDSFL

Structure (SMILES): O=C(O)CCc1c(/C=C2\C(=O)Nc3ccc(Br)cc32)[nH]c2c1CCCC2 [Compound 65]
potency in vitro compared to compound 5 [1]: almost an order of magnitude greater potency in vitro
inhibition of tumor growth (C6 glioma tumors): approximately 65%

Ki (inhibition constant) against PDGFR, compared to compound 70 (PDGFR): significantly smaller
Structure (SMILES): Cc1[nH]c(/C=C2\C(=O)Nc3ccccc32)c(C)c1CCC(=O)O [Example 5, 3-[2,4-Dimethyl-5-(2-oxo-1,2-dihydroindol-3-ylidenemethyl)-1H-pyrrol-3-yl]-propionic acid]

IC50 (HUV-EC-C cells (VEGF)): 1.6 µM
Structure (SMILES): COc1ccc2c(c1)NC(=O)/C2=C\c1[nH]cc(CCC(=O)O)c1C [Example 2, 3-[5-(6-Methoxy-2-oxo-1,2-dihydroindol-3-ylidenemethyl)-4-methyl-1H-pyrrol-3-yl]-propionic acid]
IC50 (HUV-EC-C cells (aFGF)): 31.6 µM

Structure (SMILES): CC1C(CCC(=O)O)=CNC1/C=C1\C(=O)Nc2ccccc21 (stereo not drawn) [Compound 71]
inhibition of tumor growth (C6 glioma tumors): 51%
